Legend:
[1] = system: skin cancer cell line A375-P; assay: Trans-well cancer cell migration inhibition, A375-P; type: cell-based; conditions: Homo sapiens, A375P; for IC50: Skin cancer cell A375-P, read-out: Concentration inhibiting migration of cancer cells by 50% (IC50 value)
Protocol: (§1) In order to analyze cancer cell migration inhibitory activity of CG-608, CG-609 or CG-618 prepared in Examples 1, 2, or 9, cell migration inhibitory activity was measured using a trans-well by targeting a colon cancer cell line DLD-1 (ATCC-CCL-221), pancreatic cancer cell lines AsPc-1 (ATCC-CCL-1682). CFPAC-1 (ATCC-CCL-1918). Panc-1 (ATCC-CCL-1469), and Miapaca-2 (ATCC-CCL-1420), a skin cancer cell line A375-P (ATCC-CCL-3224), lung cancer cell lines HCC-827 (ATCC-CCL-2868), A549 (ATCC-CCL-185), and NCI-H460 (ATCC-CCL-177), a prostate cancer cell line DU145 (ATCC-HTB-81), a stomach cancer cell line NuGC-3 (JCRB0822), and an ovarian cancer cell line SKOV-3 (ATCC-HTB-77).
(§2) First, the number of DLD-1 cells was measured using a hemocytometer in an RPMI medium without FBS. Thereafter, the trans-well was placed on a 24-well plate and 8×10^4 cells/200 mL of cells were added. In an empty space with the trans-well on the well plate, 500 mL of an RPM medium having 10% FBS containing CG-608, CG-609, or CG-618 was added and cultured in a CO2 incubator at 37° C. for 16 hours. After culture, […] of crystal violet (5 mg/mL of 20% […] was added to each well of the 24-well plate and the trans-well was dyed at room temperature for 30 minutes. The dyed trans-well was washed with PBS and non-migrated cells were wiped off with cotton swabs. The prepared sample was photographed with an inverted microscope mounted with a digital camera (TE 300, Nikon. Japan) and then the number of migrated cells was counted. The degree of inhibiting cell migration was calculated by Equation 1 for a group treated with the sample compared to a control group (DMSO).
(§3) In Equation 1, ‘the number of migrated cells treated with sample’ refers to the number of migrated cells measured by treating CG-608 or CG-618 of Example 1, and ‘the number of migrated cells of a control sample’ refers to the number of migrated cells measured by treating only 1% dimethyl sulfoxide (DMSO) instead of the compound.

[2] = system: lung cancer cell line HCC-827; assay: Trans-well cancer cell migration inhibition, HCC-827; type: cell-based; conditions: Homo sapiens, HCC827; for IC50: Lung cancer cell HCC-827, read-out: Concentration inhibiting migration of cancer cells by 50% (IC50 value)
Protocol: as §1, §2, §3

[3] = system: colon cancer cell line DLD-1; assay: Real-time single cell migration imaging (HoloMonitor M4), DLD-1; type: cell-based, human; conditions: DLD-1, 24 hours, FIG. 7
Protocol: (§4) An effect of a drug on migration of single cells was confirmed using HoloMonitor M4 (Phase Holographic Imaging), real-time cell migration imaging and analysis equipment. All experiments were performed within a 37° C. cell incubator to analyze cell migration while cells were alive for a long time. To prevent water vapor generated during cell imaging for a long time from obstructing the imaging, the experiment was conducted by dividing cells in an m-slide microcopy chamber (Ibidi). In order to analyze migration of single cells, cells (2.5×10^5 cells/mL) to be analyzed were divided to the m-slide microscopy chamber by 0.2 mL and cultured for more than 12 hours. The cells were sufficiently attached to its original shape and then treated with the drug, and a position to be analyzed was specified, and then the cell migration was measured in real time.
(§5) The cell migration was measured for 24 hours at five-minute intervals, and migration of 25 cells per group was analyzed. Using the HoloMonitor tracking software, a total distance migrated by the cells during the time measured, a linear distance from the starting point to the arrival point, a rate of migration, and a direction were quantitatively analyzed, and the migration of single cells was visualized with a Wind-Rose plot (FIG. 7).

[4] = system: normal cell line MCF-10A; assay: Real-time single cell migration imaging (HoloMonitor M4), MCF-10A; type: cell-based; conditions: 24 hours, FIG. 7
Protocol: as §4, §5

[5] = system: human colon cancer cell line DLD-1; assay: Lamellipodia formation inhibition (confocal microscope), DLD-1; type: cell-based; conditions: DLD-1, 6 hours, FIG. 9
Protocol: (§6) A human colon cancer cell line DLD-1, a human pancreatic cancer cell line AsPc-1, a human melanoma cell line A375P, and normal cells MCF10A were each cultured to 1×10^5 cell density on a 35 mm high-m dish plate (ibid GmbH). The cells attached to the plate were washed with phosphate buffered saline (PBS) and then treated with DMSO or CG-618 dissolved in DMSO for 6 hours. After removing the cell culture medium from the plate, the plate was washed two times with PBS and treated with 4% paraformaldehyde dissolved in PBS at room temperature for 10 minutes to immobilize the cells. The plate was washed with PBS once and then treated with 0.2% Triton X-100 at room temperature for 10 minutes to enhance cell permeability. The plate was washed with PBS and treated with 1% BSA dissolved in PBS at room temperature for 1 hour to block non-specific bonds. In order to check the distribution in cells of filament actin (F-actin), phalloidin bound with Alexa Fluor 488, which was specifically bound with F-actin, was treated at room temperature for 15 minutes. The plate was washed with PBS three times and then treated with 2 mg/mL 4′,6′-diamidino-2-phenylindole (DAPAI) dissolved in PBS for two minutes at room temperature to dye the nucleus. The plate was washed with PBS three times and filled with 1 mL PBS. […] The obtained images were analyzed by an analysis program (LSM Version 3.2 software).

[6] = system: human pancreatic cancer cell line AsPc-1; assay: Lamellipodia formation inhibition (confocal microscope), AsPc-1; type: cell-based; conditions: AsPc-1, 6 hours, FIG. 9
Protocol: as §6

[7] = system: normal cells MCF10A; assay: Lamellipodia formation (confocal microscope), MCF10A; type: cell-based; conditions: normal cell line MCF-10A, 6 hours, FIG. 9
Protocol: as §6

[8] = system: pancreatic cancer cells CFPAC-1; assay: Trans-well cancer cell migration inhibition, CFPAC-1; type: cell-based; conditions: CFPAC-1, concentration not given, FIG. 3
Protocol: as §1
as §2, with “Thereafter, the trans-well was placed on a 24-well plate and 8×10^4 cells/200 mL of cells were added. In an empty space with the trans-well on the well plate, 500 mL of an RPM medium having 10% FBS containing CG-608, CG-609, or CG-618 was added and cultured in a CO2 incubator at 37° C. for 16 hours.” left out, “(DMSO). […]” for “(DMSO).”

[9] = system: lung cancer cells A549; assay: Trans-well cancer cell migration inhibition, A549; type: cell-based; conditions: A549, concentration not given, FIG. 3
Protocol: as §1
as §2, with “Thereafter, the trans-well was placed on a 24-well plate and 8×10^4 cells/200 mL of cells were added. In an empty space with the trans-well on the well plate, 500 mL of an RPM medium having 10% FBS containing CG-608, CG-609, or CG-618 was added and cultured in a CO2 incubator at 37° C. for 16 hours.” left out, “(DMSO). […]” for “(DMSO).”

| Compound | IC50 [1] [nM] | IC50 [2] [nM] | Migration of single cancer cells (real-time imaging) [3] | Migration of single normal cells (real-time imaging) [4] | Formation of lamellipodia [5] | Formation of lamellipodia [6] | Formation of lamellipodia [7] | inhibition at 1 µM ([1]; A375-P, 1 μM, FIG. 3) [%] | inhibition at 1 µM ([2]; HCC-827, 1 μM, FIG. 3) [%] | Inhibition of cell migration [8] [%] | Inhibition of cell migration [9] [%] |
| --- | --- | --- | --- | --- | --- | --- | --- | --- | --- | --- | --- |
| CC1CCCCN1C(C)COc1ccccc1Cc1ccccc1 (racemic) [CG-618, 1-(1-(2-benzylphenoxy)propan-2-yl)-2-methylpiperidine] | 3000 | 500 | strongly inhibited | increased | inhibits formation of lamellipodia | inhibits formation of lamellipodia | has no effect |  |  |  |  |
| C[C@H](COc1ccccc1Cc1ccccc1)N1CCCC[C@@H]1C [CG-609, (S)-1-((R)-1-(2-benzylphenoxy)propan-2-yl)-2-methylpiperidine] | 700 | 210 |  |  |  |  |  | ≥ 50 | ≥ 50 | ≥ 50 | ≥ 50 |
